# Test results taken from patent US12492187B2, “Factor XI activation inhibitors” (Merck Sharp & Dohme LLC, priority 2020, dated 2025).
# Target: T1, Human coagulation factor (F)XI (Homo sapiens, UniProt P03951)
# T1 construct: purchased Haematologic Technologies Inc. (FXI); Enzyme Research Laboratories (FXIIa) HCXI-150 (FXI); HFXIIa (FXIIa)
# Assay: Inhibition of FXIIa mediated activation of FXI (activation of human Factor XI to XIa by human Factor α-XIIa)
# Format: biochemical
# Details: human FXI pre-incubated with compound 30 min at 22° C., activation by human FXIIa 60 min, z-GPR-AFC substrate, fluorescence 405/510 nm, 4 parameter logistic fit; read-out: Inhibition of FXIIa meditated activation of FXI
# Method: Inhibition of FXIIa Mediated Activation of FXI
# Activation of Human Factor XI to XIa by Human Factor α-XIIa
# Assay was performed in 50 mM HEPES, 150 mM NaCl, 5 mM CaCl2, 0.1% PEG-8000, pH 7.4 buffer in black, flat-bottom, polystyrene microplates (Corning, Cat #3573). Serial dilutions (10-point, 3.333-fold) of the test compounds delivered as 10 mM DMSO stocks were prepared in the Labcyte Echo-qualified PP 384 well microplates (Labcyte, Cat #P-05525). Human coagulation factor (F)XI (Haematologic Technologies Inc., Cat #HCXI-150, concentration 46 nM, 19.5 uL) was pre-incubated with 0.5 uL of the test compounds for 30 min at 22° C. The activation was initiated by addition of 10 uL of human coagulation factor (F)XIIa (Enzyme Research Laboratories, Cat #HFXIIa, concentration 30 nM) and reaction proceeded for 60 min at 22° C., after which it was quenched by addition of a selective inhibitor of FXIIa (Compound 54 in WO2018093695) concentration 600 uM in DMSO, 1 uL). 10 min after the quench, 29 uL of z-GPR-AFC substrate (Sigma, Cat #C0980-10MG, concentration 200 uM) was added into each well and the detection reaction proceeded for 60 min at 22° C. Fluorescence at 405/510 nm was measured in end-point mode using an Envision plate-reader (Perkin Elmer). IDBS Activity Base XE (ABase) analysis using 4 parameter logistic fit was performed to determine Minimum, Maximum, EC50, and Slope Factor for each compound.
# T1 sequence (P03951 19-625): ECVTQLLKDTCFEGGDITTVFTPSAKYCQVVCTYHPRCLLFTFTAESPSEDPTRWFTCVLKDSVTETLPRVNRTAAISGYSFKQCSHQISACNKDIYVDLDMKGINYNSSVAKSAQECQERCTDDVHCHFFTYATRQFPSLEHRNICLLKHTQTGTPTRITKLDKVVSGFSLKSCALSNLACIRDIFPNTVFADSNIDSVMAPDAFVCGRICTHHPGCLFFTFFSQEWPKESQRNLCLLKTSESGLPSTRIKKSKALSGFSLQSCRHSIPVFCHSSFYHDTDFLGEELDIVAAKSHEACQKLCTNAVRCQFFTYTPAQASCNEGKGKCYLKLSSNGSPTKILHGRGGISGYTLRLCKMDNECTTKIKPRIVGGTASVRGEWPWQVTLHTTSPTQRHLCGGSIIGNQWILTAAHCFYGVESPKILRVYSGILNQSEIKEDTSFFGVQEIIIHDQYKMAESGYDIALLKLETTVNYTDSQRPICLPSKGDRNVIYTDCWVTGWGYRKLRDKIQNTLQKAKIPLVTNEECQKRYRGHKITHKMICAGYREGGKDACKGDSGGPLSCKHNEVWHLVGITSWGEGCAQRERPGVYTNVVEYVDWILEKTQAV
row,SMILES,EC50
1,"CC(C)(C)C1CCN(C(=O)c2cc(C(=O)N3CCC(C#N)(c4ccccc4)CC3)ncc2C#N)CC1 [Example 25, 4-(4-tert-butylpiperidine-1-carbonyl)-6-(4-cyano-4-phenyl-piperidine-1-carbonyl)pyridin-1-ium-3-carbonitrile; 2,2,2-trifluoroacetate]",29.4 nM
2,"Cc1nc(C(=O)N2CCC(C#N)(c3ccccc3)CC2)cc(C(=O)N2CCC(Cc3nccs3)CC2)c1C [Example 28, 1-[5,6-dimethyl-4-[4-(thiazol-2-ylmethyl)piperidine-1-carbonyl]pyridine-2-carbonyl]-4-phenyl-piperidine-4-carbonitrile]",62.2 nM
3,"Cc1cnc(C(=O)N2CCC(C#N)(c3ccccc3)CC2)cc1C(=O)N1CCC2c3cc(F)ccc3OC2C1 (stereo not shown) [Example 14, 1-(4-(6-fluoro-1,2,3,4,4a,9a-hexahydrobenzofuro[2,3-c]pyridine-2-carbonyl)-5-methylpicolinoyl)-4-phenylpiperidine-4-carbonitrile]",45.1 nM
4,"Cc1cnc(C(=O)N2CCC(C#N)(c3ccccc3)CC2)cc1C(=O)N1CCC2c3ccc(F)cc3OC2C1 (stereo not shown) [Example 20, 1-[4-(7-fluoro-3,4,4a,9a-tetrahydro-1H-benzofuro[2,3-c]pyridine-2-carbonyl)-5-methyl-pyridin-1-ium-2-carbonyl]-4-phenyl-piperidine-4-carbonitrile; 2,2,2-trifluoroacetate]",37.1 nM
5,"N#CC1(c2ccccc2)CCN(C(=O)c2cc(C(=O)N3CC(c4ccc(F)cc4)C3)c(C(F)(F)F)cn2)CC1 [Example 17, 1-(4-(3-(4-fluorophenyl)azetidine-1-carbonyl)-5-(trifluoromethyl)picolinoyl)-4-phenylpiperidine-4-carbonitrile]",411 nM
6,"Cc1cnc(C(=O)N2CCC(C#N)(c3ccccc3)CC2)cc1C(=O)N1CC(c2ccccc2)C1 [Example 8, 1-(5-methyl-4-(3-phenylazetidine-1-carbonyl)picolinoyl)-4-phenylpiperidine-4-carbonitrile]",119 nM
7,"Cc1cnc(C(=O)N2CCC(C#N)(c3ccccc3)CC2)cc1C(=O)N1CCC(c2ccccc2)CC1 [Example 5, 1-(5-methyl-4-(4-phenylpiperidine-1-carbonyl)picolinoyl)-4-phenylpiperidine-4-carbonitrile]",30.4 nM
